According to patent US11931429B2, “Chemiluminescent probes for diagnostics and in vivo imaging” (RAMOT AT TEL-AVIV UNIVERSITY LTD., priority 2016, dated 2024):
Entries after “also recorded” stand apart in the source; their conditions may differ. Read-outs that look alike come from different tables or passages of the source.

Columns and labels:
[1] = Absorbance and fluorescence of phenol-benzoate derivatives in PBS 7.4; type: physicochemical; details: for λ maxem [nm] / λ maxex [nm] / ΦFluorescence / ε 400 nm: PBS 7.4; for Relative fluorescence emission: PBS 7.4, relative to 6a; for fluorescence emission intensity relative to parent benzoate without chlorine: 7a vs 6a, 9a vs 8a
Method: General. […] Fluorescence quantum yield was determined using Hamamatsu Quantaurus-QY.
To evaluate the substituent effect, numerous phenol-benzoate derivatives with acceptor substituents at ortho and para positions of the phenol were synthesized, and their fluorescent emission in PBS 7.4 were measured. The most significant effect was obtained when an acceptor was incorporated at the ortho position of the phenol. Following broad screen of electron-withdrawing groups, we chose to focus on the chlorine, methyl-acrylate and acrylonitrile substituents. It was previously shown that in order to enable the chemiexcitation mechanism under physiological conditions, a chlorine substituent is introduced at the ortho position of phenolic ring. This electron-withdrawing substituent decreases the pKa of the phenol released after cleavage of the protecting group and thereby enriches the relative concertation of the phenolate species in physiological pH. The methyl-acrylate and acrylonitrile substituents induced the highest increase in fluorescence emission of their corresponded phenol-benzoates. The absorbance and fluorescence spectra of selected phenol-benzoate derivatives are shown in FIG. 11, and their molecular structure and spectroscopic parameters are summarized Table 9.

[2] = reference compound, known value (Trofimov et al., 1996; Edwards et al., 1994); cited from earlier work
[3] = Chemiluminescence of adamantylidene-dioxetane luminophores 5b-9b in PBS 7.4; type: physicochemical; details: for λ maxCL [nm] / chemiluminescence emission signal relative to dioxetane 5b: PBS 7.4; for Relative CL emission: relative to 5b; for chemiluminescence emission signal upon deprotonation: water / PBS 7.4; for ΦCL(H20) %: aqueous, 5b as reference
β-galactosidase = details: 1 μM, 1.5 units/mL β-galactosidase; for chemiluminescence emission signal relative to Probe 5: PBS pH 7.4 (10% DMSO), room temp
Method: Next, we measured the light chemiluminescence emission of the probes, as a function of time, in the presence and in the absence of β-galactosidase.
Commercially available Emerald-II™ enhancer (10%) was added to Probe 5 in the presence of β-galactosidase (in PBS 7.4) and its chemiluminescence emission was compared to that of Probe 6.

HEK293-WT cells = test: Chemiluminescence microscopy imaging, HEK293-WT control cells; type: cell-based; details: 5 μM, 20 min incubation (Study 2)
Method: (§1) Images were obtained following 20 min incubation with cell culture medium containing Probe 3 (5 μM).
(§2) Images were obtained following 20 min incubation with cell culture medium containing Probe 7 (5 μM). Images were taken by the LV200 Olympus-microscope using 60× objective and 40s exposure time.
(§3) Chemiluminescence microscopy imaging of β-galactosidase activity. Chemiluminescence images were acquired using Olympus LV200 inverted microscope fitted with an EMCCD camera (Hamamatsu C9100-13). HEK293 LacZ stable cells (amsbio SC003) and HEK293-WT cells (control) were grown on 35 mm glass bottom petri dishes at 37° C. for 24 h. Cell culture medium was changed to Molecular Probes® Live Cell Imaging Solution containing 5 μM of Probe 3. Cells were incubated for another 20 minutes at 37° C. Thereafter, images were recorded with 20 minutes exposure time.
as §3, with “Chemiluminescence” for “Chemiluminescence microscopy imaging of β-galactosidase activity. Chemiluminescence”, “of probe 4.” for “of Probe 3.”, “with 40 seconds” for “with 20 minutes”

HEK293-LacZ stable cells = test: Chemiluminescence microscopy imaging of β-galactosidase activity in HEK293-LacZ cells; type: cell-based; details: 5 μM, 20 min incubation, 60× objective, seconds exposure (Study 2)
Method: as §1, §2, §3
To improve the image quality, the HEK293-LacZ cells were fixed by using 4% formaldehyde and permeabilized with 0.1% Triton X-100. The cells were then incubated with Probe 3 and imaged by the microscope using a 60× objective (NA 1.42).
Chemiluminescence images were acquired using Olympus LV200 inverted microscope fitted with an EMCCD camera (Hamamatsu C9100-13). […] Thereafter, images were recorded with 40 seconds exposure time.

[4] = Chemiluminescence detection of hydrogen peroxide by Probe 10; type: biochemical
Method: (§4) On the left—a comparison between light emission observed by Probe 10 (1 mM; left vial) to that observed by Luminol (1 mM; right vial) upon incubation with hydrogen peroxide under aqueous conditions at pH 10. Probe 12 is a chemiluminescence for detection of GSH.
(§5) FIGS. 15A-15B show (15A) total light emitted from Probe 10 (100 μM), Probe 11 (10 μM) and Probe 12 (10 μM) in the presence of hydrogen peroxide (1 mM), alkaline phosphatase (AP) (1.5 EU/ml) or glutathione (1 mM). Measurements were conducted in PBS (100 mM), pH 7.4, with 10% DMSO at RT; and (15B) total light emitted from Probe 10 (500 μM), Probe 11 (500 μM) and Probe 12 (10 μM) in PBS (100 mM), pH 7.4 with 10% DMSO over a period of 1 h, with various concentration of the corresponding stimulus. A detection limit (blank control+3 SD) was determined for each probe.
(§6) The activation of our chemiluminescence probes is based on removal of a protecting group from the phenolic moiety. Therefore, different phenol-protecting groups could be incorporated as triggering substrates for various analytes/enzymes (Redy-Keisar et al., 2014). […] Probe 10 was equipped with boronic-ester as a substrate for hydrogen peroxide, Probe 11 with phosphate group as a substrate for alkaline-phosphatase and Probe 12 with dinitro-benzene-sulfonyl group as a substrate for GSH (FIG. 14). The probes were prepared with an acrylic acid or methyl acrylate substituent at the ortho position of the phenolic oxygen. […] As described above, the probes decompose upon their activation to release the excited state of the coresponed benzoate. The acrylate substituent efficiently increases the emissive nature of the released benzoate to produce strong light emission, clearly visible to the naked eye.
(§7) To evaluate the sensitively and selectivity of Probes 10, 11 and 12 to detect their corresponded analyte/enzyme, we determined the probes' limit of detection (LOD). […] Probe 10 could detect hydrogen peroxide with an LOD value of 30 nM, Probe 11 could detect alkaline-phosphatase with an LOD value of 3.9 μU/ml and Probe 12 could detect GSH with an LOD value of 1.7 μM.

Aqueous solubility = type: physicochemical
[5] = tested on: alkaline phosphatase (AP); test: Chemiluminescence detection of alkaline phosphatase by Probe 11; type: biochemical
Method: as §4
as §5, with “[…];” for “Measurements were conducted in PBS (100 mM), pH 7.4, with 10% DMSO at RT;”
as §6, §7

[6] = Chemiluminescence detection of glutathione by Probe 12; type: biochemical
Method: as §5
The activation of our chemiluminescence probes is based on removal of a protecting group from the phenolic moiety. Therefore, different phenol-protecting groups could be incorporated as triggering substrates for various analytes/enzymes (Redy-Keisar et al., 2014). […] Probe 10 was equipped with boronic-ester as a substrate for hydrogen peroxide, Probe 11 with phosphate group as a substrate for alkaline-phosphatase and Probe 12 with dinitro-benzene-sulfonyl group as a substrate for GSH (FIG. 14). The probes were prepared with an acrylic acid or methyl acrylate substituent at the ortho position of the phenolic oxygen. […]
To evaluate the sensitively and selectivity of Probes 10, 11 and 12 to detect their corresponded analyte/enzyme, we determined the probes' limit of detection (LOD). […]

[7] = 500 μM probe, PBS (100 mM) pH 7.4, 10% DMSO, 1 h, blank control+3 SD

## COC(=O)c1cccc(O)c1 [Benzoate 4a, reference compound]
[1]
  λ maxem [nm]: 470 nm
  λ maxex [nm]: 290 nm
  Relative fluorescence emission: do not present any measurable fluorescence; also recorded: negligible

## COC(=O)c1cccc(O)c1Cl [Benzoate 5a, reference compound]
[1]
  λ maxem [nm]: 470 nm
  λ maxex [nm]: 290 nm
  Relative fluorescence emission: do not present any measurable fluorescence; also recorded: Negligible

## COC(=O)/C=C/c1ccc(C(=O)OC)cc1O [Benzoate 6a]
[1]
  ΦFluorescence: 0.5%
  ε 400 nm: 1200
  λ maxem [nm]: 550 nm
  λ maxex [nm]: 400 nm
  Relative fluorescence emission: 1

## COC(=O)/C=C/c1ccc(C(=O)OC)c(Cl)c1O [Benzoate 7a]
[1]
  fluorescence emission intensity relative to parent benzoate without chlorine: about 10 fold
  ΦFluorescence: 5.2%
  ε 400 nm: 7400
  λ maxem [nm]: 550 nm
  λ maxex [nm]: 400 nm
  Relative fluorescence emission: 10.6

## COC(=O)c1ccc(/C=C/C#N)c(O)c1 [Benzoate 8a]
[1]
  ΦFluorescence: 7%
  ε 400 nm: 2200
  λ maxem [nm]: 525 nm
  λ maxex [nm]: 400 nm
  Relative fluorescence emission: 4.7

## COC(=O)c1ccc(/C=C/C#N)c(O)c1Cl [Benzoate 9a]
[1]
  fluorescence emission intensity relative to parent benzoate without chlorine: about 4 fold
  ΦFluorescence: 29.8%
  ε 400 nm: 7700
  λ maxem [nm]: 525 nm
  λ maxex [nm]: 400 nm
  Relative fluorescence emission: 18.0

## COC1(c2cccc(O)c2Cl)OOC12C1CC3CC(C1)CC2C3 (stereo not shown) [Phenol 5b, reference compound]
[2]
  ΦCL(H20) %: 3.2×10^−3%
[3]
  λ maxCL [nm]: 470 nm
  Relative CL emission: 1
  chemiluminescence emission signal upon deprotonation: extremely weak

## COC(=O)/C=C/c1ccc(C2(OC)OOC23C2CC4CC(C2)CC3C4)cc1O (stereo not shown) [Phenol 6b]
[3]
  chemiluminescence emission signal relative to dioxetane 5b: about 700 fold
  λ maxCL [nm]: 540 nm
  ΦCL(H20) %: 2.3%
  Relative CL emission: 724
  chemiluminescence emission signal upon deprotonation: remarkably strong chemiluminescence emission signal

## COC(=O)/C=C/c1ccc(C2(OC)OOC23C2CC4CC(C2)CC3C4)c(Cl)c1O (stereo not shown) [Phenol 7b]
[3]
  λ maxCL [nm]: 540 nm
  ΦCL(H20) %: 2.5%
  Relative CL emission: 780
  chemiluminescence emission signal upon deprotonation: remarkably strong chemiluminescence emission signal

## COC1(c2ccc(/C=C/C#N)c(O)c2)OOC12C1CC3CC(C1)CC2C3 (stereo not shown) [Phenol 8b]
[3]
  λ maxCL [nm]: 525 nm
  ΦCL(H20) %: 7.4%
  Relative CL emission: 2295
  chemiluminescence emission signal upon deprotonation: remarkably strong chemiluminescence emission signal

## COC1(c2ccc(/C=C/C#N)c(O)c2Cl)OOC12C1CC3CC(C1)CC2C3 (stereo not shown) [Phenol 9b]
[3]
  chemiluminescence emission signal relative to dioxetane 5b: about 3000 fold
  λ maxCL [nm]: 525 nm
  ΦCL(H20) %: 9.8%
  Relative CL emission: 3043
  chemiluminescence emission signal upon deprotonation: remarkably strong chemiluminescence emission signal

## COC(=O)/C=C/c1ccc(C2(OC)OOC23C2CC4CC(C2)CC3C4)cc1OCc1ccc(O[C@@H]2OC(CO)[C@H](O)C(O)C2O)cc1 (stereo partly shown) [Probe 6]
β-galactosidase
  chemiluminescence emission signal relative to Probe 5: about 500 fold

## COC(=O)/C=C/c1ccc(C2(OC)OOC23C2CC4CC(C2)CC3C4)c(Cl)c1OCc1ccc(O[C@@H]2OC(CO)[C@H](O)C(O)C2O)cc1 (stereo partly shown) [Probe 7]
HEK293-WT cells
  chemiluminescence signal of HEK293-WT cells: No chemiluminescence signal at all was observed
HEK293-LacZ stable cells
  chemiluminescence images of HEK293-LacZ cells: high quality chemiluminescence images; also recorded: excellent chemiluminescence cell images

## COC1(c2ccc(/C=C/C#N)c(OCc3ccc(O[C@@H]4OC(CO)[C@H](O)C(O)C4O)cc3)c2Cl)OOC12C1CC3CC(C1)CC2C3 (stereo partly shown) [Probe 9]
β-galactosidase; PBS 7.4 (10% DMSO)
  chemiluminescence emission signal relative to Probe 5 with Emerald-II™ enhancer: more than 8 fold
β-galactosidase
  chemiluminescence emission signal relative to Probe 5: about 1800 fold

## COC1(c2ccc(/C=C/C(=O)O)c(B3OC(C)(C)C(C)(C)O3)c2)OOC12C1CC3CC(C1)CC2C3 (stereo not shown) [Probe 10]
[4]; [7]
  LOD for hydrogen peroxide: 30 nM
[4]; 1 mM, pH 10
  luminescence upon reaction with analyte: bright green luminescence
[4]; vs alkaline phosphatase and glutathione, physiological conditions
  selectivity towards analyte of choice: very good selectivity
Aqueous solubility
  aqueous solubility: increased significantly

## COC1(c2ccc(/C=C/C(=O)O)c(OP(=O)(O)O)c2)OOC12C1CC3CC(C1)CC2C3 (stereo not shown) [Probe 11]
Aqueous solubility
  aqueous solubility: increased significantly
[5]; [7]
  LOD for alkaline-phosphatase: 3.9 μU/ml
[5]; 1 mM, pH 10
  luminescence upon reaction with enzyme: bright green luminescence
[5]; vs hydrogen peroxide and glutathione, physiological conditions
  selectivity towards analyte of choice: very good selectivity

## COC(=O)/C=C/c1ccc(C2(OC)OOC23C2CC4CC(C2)CC3C4)cc1OCc1ccc(NS(=O)(=O)c2ccc([N+](=O)[O-])cc2[N+](=O)[O-])cc1 (stereo not shown) [Probe 12]
[6]; 10 μM probe, PBS (100 mM) pH 7.4, 10% DMSO, 1 h, blank control+3 SD
  LOD for GSH: 1.7 µM
[6]; vs hydrogen peroxide and alkaline phosphatase, physiological conditions
  selectivity towards analyte of choice: very good selectivity
Aqueous solubility
  aqueous solubility: relatively moderate aqueous solubility
Aqueous solubility; aqueous
  applicable concentration range: 1 to 10 µM
